Measured values reported in patent US10660914B2, “Stuffy nose deblocking composition having antiviral activity” (MARINOMED BIOTECH AG, priority 2015, dated 2020).

How the values were obtained:
[1] = system: human rhinovirus 8 (HRV8); assay: Inhibition of human rhinovirus 8 infection of Hela cells (cell viability, IC50)
Method: (§1) Hela cells were seeded into 96 well plates with a cell density of 5*10^3 cells per well and cultivated for 24 hours in a standard DMEM tissue culture medium containing 4.5 g/I glucose. Virus suspensions containing carrageenan polymer at varying concentrations of between 0 and 150 μg/ml, in combination with NaCl and sorbitol (as indicated in the respective legends to each table) in a dilution series, were incubated for 30 minutes. Cells were infected with these virus suspensions containing the test substances and 7*10^3 (HRV1a) or 5*10^4 (HRV8) infectious units per well. 30 minutes after infection the virus inoculum was removed and substituted by virus-free infection medium containing carrageenan polymer, NaCl salt and sorbitol in the concentrations to be tested. The cells were incubated for 2 to 3 days at 33° C. […] An incubation of cells with the same dilution series of test substances (i.e. carragenan component plus osmolalitiy adjusting agents) in the absence of viral infection was performed to monitor for a potential toxicity of the treatment. Calculation of IC50 values was performed with standard fitting software ExcelFit.

[2] = system: human rhinovirus 1a (HRV1a); assay: Inhibition of human rhinovirus 1a infection of Hela cells (cell viability, IC50)
Method: as §1

human coronavirus OC43 = assay: Hemagglutination inhibition assay, minimal inhibitory concentration for prevention of hCoV OC43 attachment to chicken RBCs; assay type: cell-based
Method: On a 96-well plate, two hemagglutination units of hCoV OC43/well were incubated with a ½-log dilution series of test or control samples for 10 min at room temperature. Final assay concentrations were 0.002 to 3 μg/ml iota-carrageenan in aqueous 0.5, 0.9, 2.0, 2.3 or 2.6% NaCl solution in the presence or absence of 7% sorbitol. Then, a suspension of chicken RBCs (1% v/v in PBS) was added to each well to allow hemagglutination of red blood cells (RBCs) by the virus for 1.5 hrs at 4° C. At the time point of assay evaluation, control RBCs in the absence of carrageenan were fully agglutinated, whereas hemagglutination was inhibited in the presence of carrageenan up to a sample-specific concentration, the minimal inhibitory concentration.

[3] = Osmolality of carrageenan preparations; assay type: physicochemical
[4] = 0.9% NaCl (295 mOsm/kg) compared to 0.5% NaCl (174 mOsm/kg)
[5] = 2% NaCl (670 mOsm/kg) compared to 0.5% NaCl (174 mOsm/kg)
[6] = 2.3% NaCl (776 mOsm/kg) compared to 0.5% NaCl (174 mOsm/kg)
[7] = 2.6% NaCl (872 mOsm/kg) compared to 0.5% NaCl (174 mOsm/kg)

iota-carrageenan [iota carrageenan]
Increase of IC50 value, HRV8 inhibition [1, 4]: 1.8-fold (ns) | Increase of IC50 value, HRV8 inhibition [1, 5]: 3.6-fold* | Increase of IC50 value, HRV8 inhibition [1, 6]: 6.9-fold* | Increase of IC50 value, HRV8 inhibition [1, 7]: 7.5-fold* | Increase of IC50 value, HRV1a inhibition ([2]; 0.9% NaCl (295 mOsm/kg) compared to hypoosmolar 0.5% NaCl solution (174 mOsm/kg)): 3.1-fold* ^ | Increase of IC50 value, HRV1a inhibition [2, 5]: 14.5-fold* | Increase of IC50 value, HRV1a inhibition [2, 6]: 22.3-fold* | Increase of IC50 value, HRV1a inhibition [2, 7]: 33.7-fold* | reduction in inhibitory efficacy on human rhinovirus replication ([2]; isoosmolar (0.9%) and hyperosmolar (2%, 2.3%, 2.6% NaCl) compared with hypoosmolar solution (0.5% NaCl), summary of Table 1): ≤ 34 fold | Increase of the minimal inhibitory concentration, hCV OC43 (human coronavirus OC43; 0.5% NaCl + 7% sorbitol (597 mOsm/kg) compared to 0.5% NaCl (174 mOsm/kg)): 1-fold (ns) | Increase of the minimal inhibitory concentration, hCV OC43 (human coronavirus OC43; [4]): 1-fold (ns) | Increase of the minimal inhibitory concentration, hCV OC43 (human coronavirus OC43; 0.9% NaCl + 7% sorbitol (733 mOsm/kg) compared to 0.5% NaCl (174 mOsm/kg)): 1-fold (ns) | Increase of the minimal inhibitory concentration, hCV OC43 (human coronavirus OC43; [5]): 10-fold* | Increase of the minimal inhibitory concentration, hCV OC43 (human coronavirus OC43; 2.3% NaCl (748 mOsm/kg) compared to 0.5% NaCl (174 mOsm/kg)): 10-fold* | Increase of the minimal inhibitory concentration, hCV OC43 (human coronavirus OC43; 2.3 NaCl (776 mOsm/kg) compared to 0.5% NaCl (174 mOsm/kg)): 10-fold* | Increase of the minimal inhibitory concentration, hCV OC43 (human coronavirus OC43; [7]): 10-fold* | osmolality ([3]; Table 1, solution with 0.9% NaCl): 295 mOsm/kg | osmolality ([3]; Table 1, solution with 2% NaCl): 670 mOsm/kg | osmolality ([3]; Table 1, solution with 2.3% NaCl): 776 mOsm/kg | osmolality ([3]; Table 1, solution with 2.6% NaCl): 872 mOsm/kg | osmolality ([3]; Table 4, solution with 0.9% NaCl): 295 mOsm/kg | osmolality ([3]; Table 4, solution with 2% NaCl): 670 mOsm/kg | osmolality ([3]; Table 4, solution with 2.3 NaCl): 776 mOsm/kg | osmolality ([3]; Table 4, solution with 2.6% NaCl): 872 mOsm/kg | osmolality ([3]; Table 5, solution with 0.5% NaCl + 7% sorbitol): 597 mOsm/kg | osmolality ([3]; Table 5, solution with 0.9% NaCl + 7% sorbitol): 733 mOsm/kg | osmolality ([3]; Table 5, solution with 2.3% NaCl): 748 mOsm/kg
